Test results reported in ChEMBL document CHEMBL6177923, “Novel rhodanine-thiazole hybrids as potential antidiabetic agents: a structure-based drug design approach” (RSC Med Chem, 2025).
Active and inactive are the calls of the source. No cut-off for these calls is given here.

What was measured:
[1] = target: Lysosomal alpha-glucosidase (Homo sapiens, UniProt P10253); experiment: Inhibition of human lysosomal alpha-glucosidase preincubated for 10 mins followed by p-nitrophenyl-alpha-D glucopyranoside addition and measured after 30 mins by absorbance based analysis
[2] = tested on: L929; experiment: Cytotoxicity against mouse L929 cells by MTT assay; assay type: toxicity, cell-based
[3] = tested on: HepG2; experiment: Upregulation of PPAR-gamma expression in human HepG2 cells by RayBio PPAR-gamma TF activity assay; assay type: functional, cell-based; settings: dose 6.25-100 µM

Row | SMILES | IC50 [1] [µM] | Activity [2] | Activity [3] | inhibition ([1]; time 40.0 min)
1 | O=C(O)CN1C(=O)/C(=C/c2ccc(/C=N/Nc3nc(-c4ccc(Br)cc4)cs3)cc2)SC1=S | 24.2 | Non-toxic |  | 
2 | O=C(O)CN1C(=O)/C(=C/c2ccc(/C=N/Nc3nc(-c4ccc(F)cc4)cs3)cc2)SC1=S | 52 | Non-toxic |  | 
3 | O=C1NC(=S)S/C1=C\c1ccc(/C=N/Nc2nc(-c3ccccc3)cs2)cc1 | 55.2 | Non-toxic |  | 
4 | COc1ccc(-c2csc(N/N=C/c3ccc(/C=C4\SC(=S)NC4=O)cc3)n2)cc1 | 46 | Non-toxic |  | 
5 | O=C(O)CN1C(=O)/C(=C/c2ccc(/C=N/Nc3nc(-c4ccc(Cl)cc4)cs3)cc2)SC1=S | 62.1 | Non-toxic |  | 
6 | O=C1NC(=S)S/C1=C\c1ccc(/C=N/Nc2nc(-c3ccc(Br)cc3)cs2)cc1 | 32.2 | Non-toxic | Dose-dependent-effect | 
7 | O=C(O)CN1C(=O)/C(=C/c2ccc(/C=N/Nc3nc(-c4ccccc4)cs3)cc2)SC1=S | 29.1 | Non-toxic |  | 
8 | Cc1ccc(-c2csc(N/N=C/c3ccc(/C=C4\SC(=S)NC4=O)cc3)n2)cc1 | 106 | Non-toxic |  | 
9 | O=C1NC(=S)S/C1=C\c1ccc(/C=N/Nc2nc(-c3ccc(F)cc3)cs2)cc1 | 148 | Non-toxic |  | 
10 | O=C1NC(=S)S/C1=C\c1ccc(/C=N/Nc2nc(-c3ccc(Cl)cc3)cs2)cc1 | 33.2 | Non-toxic | Dose-dependent-effect | 
11 | COc1ccc(-c2csc(N/N=C/c3ccc(/C=C4\SC(=S)N(CC(=O)O)C4=O)cc3)n2)cc1 | 63.2 | Non-toxic |  | 
12 | Cc1ccc(-c2csc(N/N=C/c3ccc(/C=C4\SC(=S)N(CC(=O)O)C4=O)cc3)n2)cc1 |  | Non-toxic |  | inactive
